Reference: paper PMC7217877, “N-AS-triggered SPMs are direct regulators of microglia in a model of Alzheimer’s disease” (Nature Communications, 2020)
Several values for one entry are separate records, joined by “and”; a condition that tells them apart may be missing. Equal values may be shown once.

Legend:
APP/PS1 mice [1] = test: light-dark test (Supplementary Fig 7j-n); type: in vivo, mouse; conditions: N-AS vs APP/PS1
Description: Transgenic mouse lines over-expressing the hAPP695swe (APP) and presenilin-1M146V (PS1) mutations were originated from GlaxoSmithKline (Harlow, UK)[32] and maintained as described previously. We purchased 5×FAD mice from Jackson Labs (Stock number. 34840-JAX). Because APP/PS1 and 5xFAD mice show sex differences in disease progression, we used only male mice. To examine possible therapeutic effect of N-AS and aspirin in APP/PS1 mice, the N-AS (30 mg kg^−1, Sigma-Aldrich, 01912) was injected daily s.c. for 8 weeks to 7-months-old APP/PS1 mice until the age of 9 months, and aspirin (2 mg kg^−1, Sigma-Aldrich, A5376)[33] was administrated orally to 7-months-old APP/PS1 mice for 8 weeks. […] Block randomization method was used to allocate the animals to experimental groups. To eliminate the bias, we were blinded in experimental progress such as data collection and data analysis. Mice were housed at temperature of 22 °C and a 12 h day/12 h night cycle with free access to tap water and food pellets. All protocols were approved by the Kyungpook National University Institutional Animal Care and Use Committee. […] Freezing was analyzed for 5 min. […] Overall activity in the box was measured, and the amount of time and distance traveled in the center arena was noted. […] The total number of transitions, latency to first enter the light chamber, distance traveled, and time spent in each chamber were recorded.

APP/PS1 mice [2] = test: tau hyperphosphorylation (AT8) quantification (Fig 6g); type: in vivo, mouse
Description: Thioflavin S (Sigma-Aldrich) staining was carried out according to previously described procedures. We used 6E10 (mouse, 1:100, Signet, SIG39300), anti-20G10 (mouse, 1:1000, provided by D. R. Howlett, GlaxoSmithKline, Harlow, Essex, UK) for Aβ42, anti-G30 (rabbit, 1:1000, provided by D. R. Howlett) for Aβ40, SMA (mouse, 1:400, Sigma-Aldrich, A2547), AT8 (mouse, 1:500, Thermo Fisher Scientific, MN1020), Caspase-3 (mouse, 1:200, Novus Biologicals, NB100-56708), ac-S565 (rabbit, 1:100), COX2 (mouse, 1:250, Thermo Fisher Scientific, 35-8200), Iba1 (rabbit, 1:500, Wako, 019-19941 and goat, Abcam, ab5076), NeuN (mouse, 1:500, Millipore, MAB177), GFAP (rabbit, 1:500, Dako, N1506 and chicken, 1:500, Abcam, ab4674), and Lamp1 (mouse, 1:200, Abcam, ab24170). The sections were analyzed with a laser-scanning confocal microscope (FV3000; Olympus) or with a BX51 microscope (Olympus). MetaMorph software (Molecular Devices) was used to quantification. Three-dimensional reconstruction of microglia was recorded and analyzed using IMARIS software (Bitplane)[11]. For the analysis of age-dependent microglial COX2^+ CX3CR1^+ cells in WT and APP/PS1 mice, COX2 (rabbit, 1:100, Abcam, ab15191) and CX3CR1 (mouse, 1:100, BioLegend, 149008) antibody were used and the images were acquired on Alexa 488 and APC Channel with performed using Operetta CLS and Analysis Software 4.5 (Perkin-Elmer). […]

Question: `CCCCCCCCCCCCC/C=C/[C@@H](O)[C@H](CO)NC(C)=O` [N-AS, N-((2S,3R,E)-1,3-Dihydroxyoctadec-4-en-2-yl)acetamide] was tested. Which “light–dark test” value (APP/PS1 mice [1]) did it give?
Answer: did not differ between the groups

Question: And the “tau hyperphosphorylation (AT8) quantification (Figure 6g)” value (APP/PS1 mice [2]; APP/PS1 + N-AS, individual animals)?
Answer: 0.1647 and 0.1634 and 0.2394 and 0.275 and 0.2281 and 0.1841

Question: What about the tau hyperphosphorylation (APP/PS1 mice [2]; APP/PS1 treated with N-AS) of the same compound?
Answer: reduced
